Like-named read-outs stand apart in the source and are kept apart here.
Tests used:
[1] = 90 minutes
Method: Example nano-suspensions were evaluated for particle size and particle size distribution using dynamic light scattering (DLS, Wyatt, DyanoPro Plate Reader). Results reported for particle size analysis (D50 and D90) have their ordinary meaning as understood in the art of particle-size analysis. Unless otherwise indicated, values for D50 and D90 are reported in nanometers (nm). The APC in example nano-suspensions was evaluated using high performance liquid chromatography (HPLC, Hewlett Packard, Agilent 1100). Residual metals analysis was performed using inductively coupled plasma mass spectroscopy (ICP-MS, Perkin Elmer).
The temperature of each nano-suspension was determined using a thermometer immediately after the milling time was completed. Particle size and metals content were analyzed as described herein. The nano-suspension product produced in each operation was recovered through centrifuge filtration over a 10 micron polypropylene mesh (Nanomill) or through a syringe equipped with a 20-gauge needle (acoustic mixer). In the case of the nano-suspension prepared with acoustic mixing, the YTZ milling media is sufficiently dense that it settles from the nano-suspension and permits separation by decantation without the need for separation through a mesh.

[2] = Particle size analysis (D50, D90) of nano-suspensions by dynamic light scattering; type: physicochemical; conditions: 90 minutes, PVP-K29-32/SDS in water

Q: Which results are given for `COc1ccc2cc([C@H](C)C(=O)O)ccc2c1` [Naproxen sodium]?
A: Residual Metals ([1]; Elan Nanomill high-shear milling): >1000 ppm; Residual Metals ([1]; Resodyn LabRAM acoustic mixer): <1 ppm; Drug nanoparticle diameter (D50) ([2]; Elan Nanomill high-shear milling, polystyrene milling beads): 354 nm; Drug nanoparticle diameter (D50) ([2]; Resodyn LabRAM acoustic mixer, YTZ milling beads): 286 nm

Reference: patent US9381518B2, “Nano-suspension process” (MERCK SHARP & DOHME CORP., priority 2011, dated 2016)
